Source: patent publication US20250129102A1, “CRYSTAL FORM OF PYRIMIDINE HETEROCYCLIC COMPOUND AND PREPARATION METHOD THEREFOR” (D3 Bio (Wuxi) Co., Ltd., priority 2021, published 2025)
pIC50: −log10 of the molar value. Where two headings read alike, the source gives them in different places.

Columns and labels:
[1] = tested on: human pancreatic cancer Mia PaCa-2 cells; experiment: Pharmacodynamics in vivo, subcutaneously transplanted Mia PaCa-2 tumor model; parameters: species or system Balb/c Nude mice; conditions: day 22 of administration
Protocol: Assay on pharmacodynamics in vivo in a subcutaneously transplanted tumor model of human pancreatic cancer Mia PaCa-2 cells in Balb/c Nude mice
Cell culture: Human pancreatic cancer Mia PaCa-2 cells (ATCC-CRL-1420) were cultured in monolayer in vitro in DMEM medium with 10% fetal calf serum and 2.5% horse serum in a 37° C., 5% carbon dioxide incubator. Cells were passaged by routine digestion with trypsin-EDTA twice a week. When the cell saturation reached 80%-90% and the cell number met the requirement, the cells were harvested, counted, and resuspended in an appropriate amount of PBS. Matrigel was added in a ratio of 1:1 to obtain a cell suspension with a cell density of 25×10^6 cells/mL.
Cell inoculation: 0.2 mL (5×10^6 cells/mouse) of Mia PaCa-2 cells (plus Matrigel, 1:1 by volume) were subcutaneously inoculated into the right back of each mouse. When the average tumor volume reached 190 mm^3, mice were randomized into groups based on tumor volume and administration was initiated according to the protocol in Table 15.
Tumor diameter was measured with vernier caliper twice a week. The calculation formula of tumor volume was: V=0.5a×b^2, where a and b represent the long and short diameters of the tumor, respectively.
The anti-tumor efficacy of compound was evaluated by TGI (%) or relative tumor proliferation rate T/C (%). Relative tumor proliferation rate T/C (%)=TRTV/CRTV×100% (TRTV: RTV in a treatment group; CRTV: RTV in a negative control group). The relative tumor volume (RTV) was calculated according to results of tumor measurement, and the calculation formula was RTV=Vt/V0, where V0 was average tumor volume measured at the time of administration by group (i.e., D0), and Vt was average tumor volume at the time of a certain measurement. For TRTV and CRTV, data on the same day were used.
TGI (%) reflected tumor growth inhibition rate. TGI(%)=[(1−(average tumor volume at the end of administration of a treatment group−average tumor volume at the beginning of administration of the treatment group))/(average tumor volume at the end of treatment of a vehicle control group−average tumor volume at the beginning of treatment of the vehicle control group)]×100%.

[2] = In vitro stability in liver microsomes, human; type: in vitro ADME; conditions: 0.5 mg/mL
Protocol: (§1) Metabolic stabilities of the assay compound in liver microsomes of CD-1 mice, SD rats, beagle dogs, cynomolgus monkeys, and human were assayed, respectively.
(§2) Two 96-well incubation plates were prepared and named T60 incubation plate and NCF60 incubation plate, respectively. 445 μL of microsomal working solutions (liver microsomal protein concentration of 0.56 mg/mL) were added to the T60 incubation plate and the NCF60 incubation plate, respectively, and then the above incubation plates were pre-incubated in a 37° C. water bath for about 10 minutes.
(§3) After the pre-incubation, 5 μL of working solutions of the assay sample or the control compound were added to the T60 incubation plate and the NCF60 incubation plate, respectively, and the mixture was mixed well. 50 μL of potassium phosphate buffer was added to each well of the NCF60 incubation plate to initiate the reaction. 180 μL of stop solution (200 ng/mL tolbutamide and 200 ng/mL labetalol in acetonitrile) and 6 uL of NADPH regeneration system working solution were added to the T0 stop plate, and 54 μL of sample was transferred from T60 incubation plate to T0 stop plate (generation of T0 sample). The reaction was initiated by adding 44 μL of NADPH regeneration system working solution to each well of the T60 incubation plate. Only 54 μL of microsome working solution, 6 uL of NADPH regeneration system working solution and 180 μL of stop solution were added to the Blank plate. Therefore, in samples of the assay compound or the control compound, the final reaction concentration of compound, testosterone, diclofenac and propafenone was 1 μM, the concentration of liver microsomes was 0.5 mg/mL, and the final reaction concentrations of DMSO and acetonitrile in the reaction system were 0.01% (v/v) and 0.99% (v/v), respectively. […] All samples were injected and analyzed by liquid chromatography-tandem mass spectrometry.

[3] = tested on: KRAS^G12C-mutated MIA-PA-CA-2 cells; experiment: cells; conditions: Homo sapiens, MIA PaCa-2, 72 h
Protocol: The main reagent used in this assay included CellTiter-Glo (Promega, Cat. No. G7573).
The main instrument used in this assay was PerkinElmer EnVision multi-function microplate reader.
The fluorescence value was read by EnVision. • 6) Data analysis: The inhibition rate of cells in each well was calculated according to the following equation:
Y=Bottom+(Top−Bottom)/(1+10^((Log IC50−X)*HillSlope))

[4] = In vitro stability in liver microsomes, beagle dogs; type: in vitro ADME; conditions: dog, 0.5 mg/mL
Protocol: as §1, §2, §3

[5] = Pharmacokinetics by oral administration and intravenous injection in CD mice; type: in vivo; conditions: for Area under the plasma concentration-time curve, AUCu: AUC0-last × PPB(Unbound %); for Vd: CD, iv, 2 mg/kg; for AUC(0-t): read-out: Area under the plasma concentration-time curve, AUC0-last
Protocol: The mixture was vortexed and sonicated to prepare a 1 mg/mL clear solution, which was filtered through a microporous membrane for later use. Male CD mice aged 7 to 10 weeks were selected, and administered candidate compound solutions intravenously or orally. Whole blood was collected for a certain period of time, and prepared to obtain plasma. Drug concentration was analyzed by LC-MS/MS method, and pharmacokinetic parameters were calculated by Phoenix WinNonlin software (Pharsight, USA).

Q: Which Average tumor volume ([1]; 10 mg/kg PO QD) does the source give for `C=C(F)C(=O)N1CCN(c2nc(OC[C@@]34CCCN3C[C@H](F)C4)nc3c2CO[C@H](c2c(F)c(N)cc(C)c2C(F)(F)F)C3)C[C@@H]1CC#N` [Compound of formula (I)] here?
A: 249.87 mm^3

Q: And the T/C ([1]; 10 mg/kg PO QD)?
A: 12.39%

Q: What about the TGI ([1]; 10 mg/kg PO QD) of the same compound?
A: 93.06%

Q: What about the Average tumor volume ([1]; 30 mg/kg PO QD) of the same compound?
A: 124.14 mm^3

Q: What about the T/C ([1]; 30 mg/kg PO QD) of the same compound?
A: 6.16%

Q: What about the TGI ([1]; 30 mg/kg PO QD) of the same compound?
A: 99.64%

Q: And the CLint scaled at 1 μM [2]?
A: 61.1 mL/min/kg

Q: What about the half-life at 1 μM [2] of the same compound?
A: 0.34 h

Q: And the microsomal CLint at 1 μM ([2]; read-out: CLint(hep))?
A: 67.9 µL/min/mg

Q: And the pIC50 [3]?
A: 9.36

Q: What about the CLint scaled at 1 μM [4] of the same compound?
A: < 13.8 mL/min/kg

Q: What about the half-life at 1 μM [4] of the same compound?
A: > 2.42 h

Q: And the microsomal CLint at 1 μM ([4]; read-out: CLint(hep))?
A: < 9.6 µL/min/mg

Q: And the “Area under the plasma concentration-time curve, AUCu” value ([5]; intravenous injection, 2.0 mg/kg)?
A: 0.1556 µM·h

Q: And the Vd ([5]; male, mouse, plasma, intravenous injection, 2.0 mg/kg, Vdss/PPB(Unbound %), read-out: Apparent volume of distribution, Vdss, u)?
A: 32.3 L/kg

Q: And the Vd ([5]; male, mouse, plasma, intravenous injection, 2.0 mg/kg, read-out: Apparent volume of distribution, Vdss)?
A: 3.9 L/kg

Q: What about the AUC(0-t) ([5]; male, mouse, plasma, intravenous injection, 2.0 mg/kg) of the same compound?
A: 1.3 µM·h

Q: What about the clearance ([5]; male, mouse, plasma, intravenous injection, 2.0 mg/kg, read-out: Clearance rate, CL) of the same compound?
A: 40.6 mL/min/kg

Q: And the half-life ([5]; male, mouse, plasma, intravenous injection, 2.0 mg/kg, read-out: Half-life time, T1/2 (converted))?
A: 1.7 h

Q: What about the AUC(0-t) ([5]; male, mouse, plasma, oral administration, 10.3 mg/kg) of the same compound?
A: 1.42 µM·h

Q: What about the bioavailability ([5]; male, mouse, plasma, oral administration, 10.3 mg/kg, read-out: Bioavailability F (%)) of the same compound?
A: 21.9%

Q: What about the Cmax ([5]; male, mouse, plasma, oral administration, 10.3 mg/kg, read-out: Peak concentration, Cmax) of the same compound?
A: 431 nM

Q: What about the Tmax ([5]; male, mouse, plasma, oral administration, 10.3 mg/kg, read-out: Time-to-peak, Tmax) of the same compound?
A: 1 h

Q: What about the “Area under the plasma concentration-time curve, AUCu” value ([5]; oral administration, 10.3 mg/kg) of the same compound?
A: 0.1706 µM·h

Q: What about the “Peak concentration, Cmax, u” value ([5]; oral administration, 10.3 mg/kg, Cmax × PPB(Unbound %)) of the same compound?
A: 51.7 nM
